“Also recorded” adds a separate entry of the source. Like-named read-outs stand apart in the source and are kept apart here.
Tests used:
[1] = system: aromatic L-amino acid decarboxylase; conditions: by aromatic L-amino acid decarboxylase; conventional pharmacological features; cited from earlier work
[2] = conventional pharmacological features; cited from earlier work
SD rats [3] = conditions: cited from earlier work
solubility = format: physicochemical
Text: (§1) L-threo-DOPS, whose molecular formula is C9 H11 NO5, is white or light brown crystals or crystalline powder with no taste or odor. […] It is difficult to measure a clear melting point or decomposition point for L-threo-DOPS. […] DL-threo-DOPS, which contains 50% L-threo-DOPS, can also be used in this invention. Hereafter, L-threo-DOPS and DL-threo-DOPS are generically denoted as "threo-DOPS".

SD rats [4] = conditions: cited from earlier work; for perinatal and lactation period findings: oral
Rats, SD strain = conditions: cited from earlier work
rabbits = conditions: oral 30, 100, 300 mg/kg/day; cited from earlier work
[5] = Short term clinical testing, motor disturbance: Barthel index (ADL); format: in vivo, clinical subjects; conditions: of the 19 cases improved in 10-meter walking; 300 mg per day for 2 days
Description: (§2) Clinical testing was conducted to evaluate the effects of the restorative neuropharmacological agent for motor and speech disturbance according to this invention.
(§3) Clinical subjects for motor disturbance were 2 cases after cerebral aneurysm operations (subarachnoid hemorrhage), 9 cases of brain hemorrhage and 10 cases of brain infarction with chronic apoplectic paralysis, i.e. a total of 21 cases (12 males and 9 females, age 43-83 with an average 61.9±2.5 years). For these clinical subjects, the average time elapsed from the onset had occurred was 100 days.
(§4) First, the clinical subjects received physical therapy without administration of droxidopa (L-DOPS), and then they were evaluated with FMS (Fugl-Meyer score), 10-meter walking and the Barthel index. The clinical subjects then received administration of 300 mg droxidopa (L-DOPS) per day for 2 days in addition to the physical therapy, and were evaluated with FMS. 10-meter walking and with the Barthel index.

beagle dogs [6] = conditions: cited from earlier work; for LD50: oral
beagle dogs [7] = conditions: oral 200, 600, 2,000 mg/kg/day, 3 months; cited from earlier work
rhesus monkeys [8] = conditions: cited from earlier work; for LD50: oral
[9] = Speech observation on administration and on stopping administration, Broca aphasia after stroke; format: in vivo, clinical subjects
Description: (§5) The clinical subjects for speech disturbance were 10 cases of Broca aphasia after stroke (3 males and 7 females, age 51-65 with an average of 58.6±1.6 years).
(§6) First, without administration of droxidopa, the clinical subjects were evaluated with standard aphasia testing (SLAT). […] For 8 of the clinical subjects, 100 mg of droxidopa was administered once a day for a subsequent 2 weeks and evaluation was conducted using SLAT.
Administration of droxidopa to these clinical subjects was stopped after 2 weeks. As a result, speech was totally lost in 2 cases. Subsequently, administration of droxidopa was stopped twice and, in one case, speech was totally lost every time administration was stopped and restored when administration was resumed.

[10] = Side-effects in clinical subjects with speech disturbance; format: in vivo; conditions: clinical subjects with Broca aphasia
Description: as §5, §6

[11] = Repeated 2-day administration after 1-2 weeks and halt of administration, motor functions; format: in vivo, clinical subjects
Text: The administration of droxidopa to the clinical subjects was then halted, but the level of the improvement effect on motor functions was maintained.

physchem = format: physicochemical; conditions: titration method
Text: as §1

cultured cells = conditions: cited from earlier work
[12] = Short term clinical testing: central-facial palsy; format: in vivo, clinical subjects; conditions: all of the 12 cases with central-facial palsy; 300 mg per day for 2 days; none of 6 control cases
rhesus monkeys [13] = conditions: oral 300, 1,000, 3,000 mg/kg/day, 3 months; cited from earlier work
[14] = system: guinea pigs (Hartley strain, male); conditions: cited from earlier work
SD rats [15] = conditions: oral 60, 200, 600 mg/kg/day, male and female; cited from earlier work
beagle dogs [16] = conditions: oral 125, 500, 2,000 mg/kg/day, 12 months; cited from earlier work
[17] = Short term clinical testing, motor disturbance: FMS (Fugl-Meyer score); format: in vivo, clinical subjects; conditions: for Improvement in FMS: individual case
Description: as §2, §3, §4

microorganisms = conditions: cited from earlier work
[18] = Long term administration testing: Barthel index (ADL); format: in vivo, clinical subjects; conditions: for Improvement in ADL: individual case
Description: Based on the above results, […] term administration testing was conducted.

SD rats [19] = conditions: oral, 12 months, cited from earlier work
SD rats [20] = conditions: 3 months, cited from earlier work
mice = conditions: cited from earlier work
[21] = Short term clinical testing, motor disturbance: 10-meter walking; format: in vivo, clinical subjects; conditions: of the 21 cases; 300 mg per day for 2 days
Description: as §2, §3, §4

[22] = Clinical testing, speech disturbance (Broca aphasia after stroke): standard aphasia testing (SLAT); format: in vivo, clinical subjects; conditions: after 2 weeks
Description: as §5, §6

Mice, ICR strain = conditions: cited from earlier work
[23] = of the 21 cases, 300 mg per day for 2 days

N[C@H](C(=O)O)[C@H](O)c1ccc(O)c(O)c1 [threo-DOPS]
conversion to norepinephrine [1]: directly converted to 1-norepinephrine
passage through the blood-brain barrier [2]: passes through the blood-brain barrier into the brain

N[C@@H](C(=O)O)[C@H](O)c1ccc(O)c(O)c1 [L-threo-DOPS, (-)-(2R, 3R)-2-amino-3-hydroxy-3-(3,4-dihydroxyphenyl) propionic acid]
other influence, organ forming period (SD rats [3]; oral 60, 200, 600 mg/kg/day): No other influence was observed
findings in fetuses (SD rats [3]; oral, 200 mg/kg or higher, restorable after birth): lower body weights of fetuses and an increase in the occurrence of undulating ribs were observed
solubility in ethanol (solubility; ethanol): dissolves very little
solubility in ether (solubility; ether): dissolves very little
solubility in glacial acetic acid (solubility; glacial acetic acid): dissolves very little
solubility in water (solubility; water): dissolves only slightly
other influence, perinatal and lactation period (SD rats [4]; oral 60, 200, 600 mg/kg/day): No other influence was observed
perinatal and lactation period findings (SD rats [4]; 60 mg/kg or higher): suppression of neonatal development after birth was observed
perinatal and lactation period findings (SD rats [4]; 600 mg/kg): shortening of the pregnancy period was observed
LD50 (Rats, SD strain; hypodermic, female): 95 mg/kg
LD50 (Rats, SD strain; hypodermic, male): 84 mg/kg
LD50 (Rats, SD strain; intravenous, female): 19 mg/kg
LD50 (Rats, SD strain; intravenous, male): 16 to 19 mg/kg
LD50 (Rats, SD strain; oral, female): > 10000 mg/kg
LD50 (Rats, SD strain; oral, male): > 10000 mg/kg
general symptoms, acute toxicity (Rats, SD strain; rats): reduced voluntary motions, deep breathing and bradypnea were observed
influence, organ forming period (rabbits): no influence on the rabbits was observed
cases with improvement in the Barthel index (ADL) [5]: one
general symptoms, acute toxicity (beagle dogs [6]; dogs): no abnormal symptom was observed
LD50 (beagle dogs [6]; female): > 5000 mg/kg
LD50 (beagle dogs [6]; male): > 5000 mg/kg
subacute toxicity findings (beagle dogs [7]): no abnormality was observed
LD50 (rhesus monkeys [8]; female): > 5000 mg/kg
LD50 (rhesus monkeys [8]; male): > 5000 mg/kg
general symptoms, acute toxicity (rhesus monkeys [8]; rhesus monkeys): no abnormal symptom was observed
speech after 2 days of administration ([9]; 300 mg, 3 times a day for 2 days): speech improved
cases in which speech was totally lost after administration was stopped ([9]; administration stopped after 2 weeks): 2 cases
cases in which speech was totally lost every time administration was stopped and restored when resumed ([9]; administration stopped twice): one
side-effects [10]: No serious side-effect was observed
cases with further improvement on repeated administration ([11]; 5 cases re-dosed for 2 consecutive days after 1-2 weeks): 3 cases
level of the improvement effect on motor functions after administration was halted ([11]; after halting administration): maintained
pKa (physchem): 7.88
mutagenicity, chromosome abnormality testing (cultured cells): no mutagenicity was observed
cases with central-facial palsy that showed improvement [12]: 12 cases
subacute toxicity findings (rhesus monkeys [13]): no abnormality was observed
Endodermoreaction [14]: negative
PCA reaction [14]: negative
intra-gel sedimentation reaction [14]: negative
systemic anaphylaxis reaction [14]: negative
mating rate, conception rate, nidation number, embryo/neonate death, teratogenic actions or fetal development (SD rats [15]): no influence was observed
chronic toxicity findings (beagle dogs [16]): no abnormality was observed
FMS increase ([17]; 300 mg per day for 2 days plus physical therapy, higher than control cases): 2.5±0.5
Improvement in FMS ([17]; brain hemorrhage (BH), 300 mg per day for 2 days plus physical therapy, listed as L-DOPS): Improved; also recorded: No change
Improvement in FMS ([17]; brain infarction (BI), 300 mg per day for 2 days plus physical therapy, listed as L-DOPS): Improved; also recorded: No change
Improvement in FMS ([17]; subarachnoid hemorrhage (SAH), 300 mg per day for 2 days plus physical therapy): Improved
cases with improved balance (FMS) [17, 23]: 3 cases
cases with improvement in lower limb motor function (FMS) [17, 23]: 6 cases
cases with improvement in upper limb motor function (FMS) [17, 23]: 10 cases
cases with improved FMS ([17]; of the 21 cases, 300 mg per day for 2 days plus physical therapy): 15 cases
mutagenicity, back mutation testing (microorganisms): no mutagenicity was observed
dependence of results on time elapsed since onset of the illness ([18]; 200-500 mg/day for 2 weeks to 2 months): independent of the time elapsed since onset of the illness
Improvement in ADL ([18]; 200 mg per day × 2W, listed as L-DOPS): Improved; also recorded: No change
Improvement in ADL ([18]; 200 mg per day × 4W): No change
Improvement in ADL ([18]; 200 mg per day × 8W): Improved
Improvement in ADL ([18]; 300 mg per day × 3W): Improved
Improvement in ADL ([18]; 300 mg per day × 6W): Improved
Improvement in ADL ([18]; 300 mg per day × 7W): No change
Improvement in ADL ([18]; 500 mg per day × 6W): Improved
cases with improvement in the Barthel index (ADL) ([18]; of the 10 cases, 200-500 mg/day for 2 weeks to 2 months): 7 cases
chronic toxicity findings (SD rats [19]; 30 mg/kg/day and higher): suppression of weight increases, an increase in thymus weight, necrosis of kidney uriniferous tubuli, degeneration of kidney glomeruli, etc. were observed
chronic toxicity findings (SD rats [19]; 100 mg/kg/day and higher): drooling, myocarditis and calcification of cardiac muscles, etc. were observed
subacute toxicity findings (SD rats [20]; oral, 60 mg/kg/day and higher): suppressed voluntary motions, necrosis of kidney uriniferous tubuli, necrosis of cardiac muscles, etc. were observed
subacute toxicity findings (SD rats [20]; oral, 300 mg/kg/day and higher): Suppression of weight increases and such were observed
subacute toxicity findings (SD rats [20]; oral, 1,500 mg/kg/day): Drooling was observed
mutagenicity, micronucleus testing (mice): no mutagenicity was observed
cases with improvement in the 10-meter walking [21]: 19 cases
cases with improvement in "hearing" (SLAT) [22]: one
cases with improvement in "reading" (SLAT) [22]: 3 cases
cases with improvement in "repeating" (SLAT) [22]: 2 cases
cases with improvement in "speaking" (SLAT) [22]: 7 cases
cases with improvement in "writing" (SLAT) [22]: 6 cases
average improvement rate, SLAT "hearing", imperatives ([22]; 100 mg once a day): 16%
average improvement rate, SLAT "hearing", short sentences ([22]; 100 mg once a day): 33%
average improvement rate, SLAT "reading", Chinese character words ([22]; 100 mg once a day): 10%
average improvement rate, SLAT "reading", short sentences ([22]; 100 mg once a day): 20%
average improvement rate, SLAT "repeating" ([22]; 100 mg once a day): 10%
average improvement rate, SLAT "speaking", actions ([22]; 100 mg once a day): 13%
average improvement rate, SLAT "speaking", names ([22]; 100 mg once a day): 27%
average improvement rate, SLAT "writing", Japanese syllabary words ([22]; 100 mg once a day): 20%
cases with improved SLAT results ([22]; of the 10 cases): 8 cases
LD50 (Mice, ICR strain; hypodermic, female): > 10000 mg/kg
LD50 (Mice, ICR strain; hypodermic, male): > 10000 mg/kg
LD50 (Mice, ICR strain; intravenous, female): > 100 mg/kg
LD50 (Mice, ICR strain; intravenous, male): > 100 mg/kg
general symptoms, acute toxicity (Mice, ICR strain; mice): reduced voluntary motions, deep breathing and bradypnea were observed
LD50 (Mice, ICR strain; oral, female): > 10000 mg/kg
LD50 (Mice, ICR strain; oral, male): > 10000 mg/kg
